Test results taken from patent publication US20100184819A1, “METHOD FOR REDUCING INTRACRANIAL PRESSURE” (priority 2007, published 2010).

Assays:
[1] = system: aquaporin 4 (AQP-4); assay: Perivascular AQP-4 immunostaining (electron microscopy) after diffuse traumatic brain injury; format: in vivo; details: rat diffuse TBI, intravenous injection at 30 min after injury, 5 h after injury
From the text: We decided to study the water channels associated with the cerebral vasculature, and in particular aquaporin 4 (AQP-4), in order to see whether there were any changes in the expression of these channels. For these studies, a rat model was used, and raised ICP was induced by diffuse traumatic brain injury. In this model, a traumatic brain injury was induced using the impact-acceleration model. Briefly, the impact-acceleration device delivers an accelerating blow centrally on to the dorsal surface of the skull of halothane anesthetized male Sprague-Dawley rats (380-420 g). The point of impact was protected with a stainless steel disc to prevent skull fracture, while the head was subsequently decelerated using either a foam or gel filled cushion. For severe injury, the 450 g brass weight is dropped from a height of 2 metres. The impact results in extensive, diffuse neuropathological damage throughout the brain with associated neurological deficits. Immunohistochemical labelling was used to investigate the expression of aquaporin-4 (FIG. 1). Briefly, electron microscopy of AQP-4 used a rabbit polyclonal antibody (Alpha Diagnostic International, Inc., San Antonio) as the primary antibody, with immunolabelling completed using biotinylated secondary antibody (goat anti-rabbit IgG) and streptavidin-peroxidase complex (Rockland, Gilbertsville, Pa.). […]

[2] = system: blood brain barrier permeability after injury; assay: Attenuation of blood brain barrier permeability after injury (dose finding); format: in vivo, rat; details: intravenous, 30 min after induction of injury
Protocol: N-acetyl-tryptophan was dissolved in sterile, normal saline, and administered by intravenous injection at 30 min after induction of injury. […] The optimal dose, based on the ability of the drug to attenuate blood brain barrier permeability after injury, was 2.5 mg/kg.

[3] = system: rat model of traumatic brain injury; assay: Diffusion weighted imaging of cerebral oedema after severe diffuse traumatic brain injury; format: in vivo; details: severe diffuse TBI, treatment 30 min after insult, 10^-5 mol/kg, imaged 5 h after injury
From the text: After a traumatic injury (left-hand panel), areas of hyperintensity reflect an increased ADC, which at this early time point is indicative of vasogenic edema.
In order to observe whether a substance P receptor antagonist could facilitate the movement of water out of the brain, we carried out nuclear magnetic resonance spectroscopy (NMR) studies using a rat model of traumatic brain injury. Diffusion-weighted NMR images were generated following trauma (FIG. 2, left-hand panel).
Following injury, a number of “brighter” areas are clearly visible within the brain. These “bright” areas correlate with regions where extracellular water is gathering within the brain.

[4] = system: sheep model of diffuse traumatic brain injury; assay: Intracranial pressure in the sheep model of diffuse traumatic brain injury; format: in vivo; details: administered at 30 min after injury
Protocol: Following traumatic injury, intracranial pressure was measured in the sheep using a standard neurosurgical “bolt” and pressure transducer (FIG. 3).
(§1) Briefly, 2-year-old male Merino sheep were impacted in the left temporal region by a humane stunner. Sheep were continuously anesthetized and ventilated using 2.5% isoflurane in oxygen (4 L/min). Animals were then placed into a prone sphinx position, and restrained to the table, leaving the neck and head mobile relative to the body. Impact injury was induced at the midpoint between the left supraorbital process and the left external auditory meatus using a Captive humane bolt stunner armed with a number 7 red charge (model KML, Karl Schermer & Co., Germany). The injury produced by this method has been fully characterised, and mimics that seen in human TBI victims. (Lewis, S. B., Finnie, J. W., Blumbergs, P. C., Scott, G., Manavis, J. Brown, C., Reilly, P. L., Jones, N. R., McLean, A. J. (1996) A head impact model of early axonal injury in the sheep. J Neurotrauma 13, 505-514.)
After injury, animals were stabilised and the heads restrained to the operating table to facilitate insertion of intracranial pressure (ICP) and brain tissue oxygenation (PbtO2) probes between 15 and 30 min after trauma. Following exposure of the skull, a 5.8 mm burr hole was performed at a point 4 cm lateral to the sagittal midline on the ipsilateral side, the dura matter opened and a calibrated Codman Microsensor ICP transducer inserted such that the tip of the sensor was 1.5 cm into the parenchyma of the left parietal lobe. The probe was attached to a Codman ICP Express monitoring system (Codman and Shurtleff Inc., USA) for digital recording.

[5] = system: rat diffuse traumatic brain injury model; assay: ICP after diffuse traumatic brain injury plus hypoxia in the rat; format: in vivo; details: male Sprague Dawley rats, diffuse TBI + 15 min hypoxia
Protocol: Male Sprague Dawley rats were injured using a diffuse traumatic brain injury model, and then made hypoxic for a period of 15 minutes, before being ventilated on normal air. ICP was monitored using a Codman ICP pressure sensor for the ensuing 4 hours. After injury, ICP increased from a mean of 4.88±0.12 mm Hg to a mean of 9.23±0.28 mm Hg, an increase of 96%. Treatment with the NK1 antagonist, NAT, reduced ICP by a mean value 21%. […] Male Sprague Dawley rats were injured using the widely accepted diffuse traumatic brain injury model, and then made hypoxic for a period of 15 minutes, before being ventilated on normal air. ICP was monitored using a Codman ICP pressure sensor for the ensuing 4 hours. After injury, ICP increased from a mean of 4.88±0.12 mm Hg to a mean of 9.23±0.28 mm Hg, an increase of 96%. Treatment with the NK1 antagonist, NAT, reduced ICP by a mean value 21% (FIG. 6).

[6] = system: sheep model of diffuse traumatic brain injury; assay: Brain tissue oxygenation (PbtO2) in the sheep model of diffuse traumatic brain injury; format: in vivo
From the text: as §1
The injury was carried out in sheep as previously described. In addition to the burr hole for ICP monitoring, a second burr hole 1 cm lateral to the sagittal midline and over the left fronto-parietal suture allowed insertion of the distal end of a LICOX® PbtO2 probe to a depth of 2 cm. The probe was attached to a LICOX® brain tissue oxygen monitoring system (Integra, USA) for digital recording. After insertion of the probes, both burr holes were sealed using bone wax. ICP and PbtO2 was recorded every 30 min for a period of 4 hours.

CC(=O)N[C@@H](Cc1c[nH]c2ccccc12)C(=O)O [N-acetyl-L-tryptophan]
expression of aquaporin-4 (perivascular AQP-4 channels) [1]: rise in the expression of aquaporin-4 to, or indeed above, pre-injury levels
expression of aquaporin-4 (perivascular AQP-4 channels) ([1]; listed as NAT): rapid restoration of AQP-4 channels
optimal dose, based on ability to attenuate blood brain barrier permeability after injury [2]: 2.5 mg/kg
cerebral oedema (areas of hyperintensity / water gathering) on diffusion-weighted images [3]: no indication of any water gathering in these areas
cerebral oedema (areas of hyperintensity / water gathering) on diffusion-weighted images ([3]; listed as NK1 antagonist): clearly reduces areas of hyperintensity
effect on intracranial pressure (ICP) ([4]; listed as N-Acetyl Tryptophan): Reduces Intracranial Pressure
effect on intracranial pressure (ICP) ([4]; listed as NK1 antagonist): immediately decrease in ICP
time for ICP to return to normal (sham) levels after administration ([4]; listed as NK1 antagonist): 3 h
effect on intracranial pressure (ICP) ([4]; listed as NK1 receptor antagonist): ICP always fell
time for ICP to return to normal (sham) levels after administration ([4]; listed as NK receptor antagonist): 3 to 4 h
functional outcome relative to vehicle treated controls [5]: significant improvement in functional outcome
mean reduction of ICP ([5]; ICP monitored 4 hours): 21%
time for brain oxygen levels to be back to normal limits ([6]; NK1 receptor antagonist after injury): 3 to 4 h
effect on brain oxygen levels ([6]; administered at 30 min after injury, listed as N-Acetyl Tryptophan): Restores Oxygen Levels to Normal
effect on brain oxygen levels ([6]; administered at 30 min after injury, listed as NK1 antagonist): immediate improvement in brain oxygen status
effect on brain oxygen levels ([6]; administered at 30 min after injury, listed as NK1 receptor antagonist): oxygen levels start to rapidly recover
time after TBI by which brain oxygen values returned to normal (control) levels ([6]; administered at 30 min after injury, time after TBI): ≤ 4 h
